One test concerns the target T1, type Iα PKA holoenzyme (Bos taurus, UniProt P00514).
T1 construct: made in house; host or cells: E. coli
The test can be described thus: High throughput FP assay format (TR-IP20, C-subunit, R-subunit, cGMP). Format: binding. Particulars: for reduction in FP signal due to competition with ATP: HTS format, compound at 200 μM, 2 mM ATP; for HTS result (agonist / antagonist by FP reading versus 3 μM cGMP alone): tested at 25 μM, 40 nM TR-IP20. Here is the method:
The high throughput screening (HTS) was performed by addition of 1 μL of a test compound in DMSO to 49 μL buffer containing TR-IP20, C-subunit, R-subunit, and cGMP.
An agonistic Z′-factor was calculated between the half maximal and maximal FP response, while the antagonistic Z′-factor was calculated between the minimal and half maximal FP response. The maximal FP response was calculated by adding 1 μL cGMP in DMSO (500 μM final) to 49 μL HTS mix. Half maximal binding was calculated when 1 μL DMSO was used instead and minimal FP response was calculated by adding 1 μL Rp-8-Br-cAMPS in DMSO (50 μM final). Final DMSO concentration was 2%.
Antagonism by Rp-8-Br-cAMPS was measured with the HTS format.
Finally, to validate the assay, screening was performed on a selection of nucleotide and xanthine derivatives. […] Included in Set 1 are the known PKA effectors 8-Cl-cAMP (agonist) and Rp-8-Br-cAMPS (antagonist).

In test [1] the target is C-subunit of protein kinase A (Mus musculus, UniProt P05132, C200A). In words: biochemical.
Another test addresses PKA C-subunit (Homo sapiens, UniProt P17612). The note with it: cited from earlier work.

No end group written: not given here.

One may read the IC50 as the point on the concentration scale where inhibition reaches its midpoint. Low values mean higher potency, high ones lower potency.

T1 sequence (P00514 with tags, fused parts or gaps): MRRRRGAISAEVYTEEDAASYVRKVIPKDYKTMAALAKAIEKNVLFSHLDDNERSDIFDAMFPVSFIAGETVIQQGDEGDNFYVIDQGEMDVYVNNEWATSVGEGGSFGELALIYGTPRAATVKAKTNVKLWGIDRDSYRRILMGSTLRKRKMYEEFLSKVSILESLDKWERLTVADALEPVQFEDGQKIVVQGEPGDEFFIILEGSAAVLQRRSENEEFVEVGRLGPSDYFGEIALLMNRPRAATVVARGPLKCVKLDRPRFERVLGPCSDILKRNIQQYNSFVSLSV

On to `CN[C@@H]1C[C@H]2O[C@@](C)([C@@H]1OC)n1c3ccccc3c3c4c(c5c6ccccc6n2c5c31)C(=O)NC4` [staurosporine], for which, at type Iα PKA holoenzyme, the “reduction in FP signal due to competition with ATP” value is listed as “no reduction in FP signal”.
For the molecule `Nc1ncnc2c1nc(Cl)n2[C@@H]1O[C@@H]2COP(=O)(O)O[C@H]2[C@H]1O` [8-Cl-cAMP], the “HTS result (agonist / antagonist by FP reading versus 3 μM cGMP alone)” value on type Iα PKA holoenzyme is recorded as “agonist”.
Consider GRTGRRNAIHD-NH2 [PKI (14-24)], for which the IC50 in test [1] worked out at 2.7 µM.
As to `O=S(=O)(NCCNCC=Cc1ccc(Br)cc1)c1cccc2cnccc12` [H89, N-[2-(p-bromocinnamylamino)ethyl]-5-isoquinolinesulfonamide], the “reduction in FP signal due to competition with ATP” value on type Iα PKA holoenzyme is recorded as “no reduction in FP signal”.
As for `Nc1ncnc2c1nc(Br)n2C1OC2COP(O)(=S)OC2C1O` (stereo not shown) [Rp-8-Br-cAMPS], the “HTS result (agonist / antagonist by FP reading versus 3 μM cGMP alone)” value on type Iα PKA holoenzyme is recorded as “antagonist”.
On to `Nc1ncnc2c1ncn2[C@@H]1O[C@H](COP(=O)(O)OP(=O)(O)OP(=O)(O)O)[C@@H](O)[C@H]1O` [ATP], for which the “enhancement of the affinity of the C-subunit for ATP” value at PKA C-subunit (in the presence of the R-subunit or IP20, literature (Lew et al. 1997)) is listed as “over 2000 fold”. Moreover, the Kd at PKA C-subunit (read-out: affinity of ATP for the PKA C-subunit) is roughly 25 µM.

The values are drawn from patent US7892776B2, “Screening assay to identify modulators of protein kinase A” (The Regents of the University of California, priority 2007, dated 2011).
